29 compounds from patent publication EP2951180B1, “2,6,7,8 SUBSTITUTED PURINES AS HDM2 INHIBITORS” (Merck Sharp & Dohme Corp., priority 2013, dated 2014) can be followed below.

T1 sequence (Q00987 17-125): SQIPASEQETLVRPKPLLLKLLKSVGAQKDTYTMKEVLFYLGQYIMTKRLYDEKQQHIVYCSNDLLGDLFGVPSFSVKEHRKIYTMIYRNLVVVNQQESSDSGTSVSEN

One test has as its target T1, HDM2 (Homo sapiens, UniProt Q00987).
T1 construct: Thioredoxin (N); made in house; host or cells: E. coli strain BL21(DE3)Rosetta
Kind of test: HDM2 FRET assay (inhibition of binding of FITC labeled p53-pocket peptide to HDM2). Conditions: Table 6; read-out: FRET IC50. The method, boiled down:
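Displacement of FITC-p53 peptide (3 nM) from His-tagged HDM2 (0.5 nM) is measured by Tb-to-fluorescein FRET in PBS, 0.01% BSA, 0.01% Tween-20. IC50 values derive from 10-point curves.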
One may read the IC50 as the point on the concentration scale where inhibition reaches its midpoint. Consider `Cc1cccc(-c2nc3nc(C(=O)O)nc(N(C)CC(C)(C)C)c3n2Cc2ccc(C(F)(F)F)cc2)c1` [Example 6.82, 6-[(2,2-dimethylpropyl)(methyl)amino]-8-(3-methylphenyl)-7-[4-(trifluoromethyl)benzyl]-7H-purine-2-carboxylic acid], for which the IC50 is 899 nM.

On to `CCCCN(C)c1nc(C(=O)O)nc2nc(-c3cccc(C)c3)n(Cc3ccc(C(F)(F)F)cc3)c12` [Example 6.83, 6-[butyl(methyl)amino]-8-(3-methylphenyl)-7-[4-(trifluoromethyl)benzyl]-7H-purine-2-carboxylic acid], for which the IC50 was found to be 834 nM. As to `Cc1cccc(-c2nc3nc(C(=O)O)nc(N4CCCC4C(C)C)c3n2Cc2ccc(C(F)(F)F)cc2)c1` (centres unmarked) [Example 6.85, 6-[2-(1-methylethyl)pyrrolidin-1-yl]-8-(3-methylphenyl)-7-[4-(trifluoromethyl)benzy 1]-7H-purine-2-carboxylic acid], the IC50 is 723 nM. Consider `CCCC1CCCN1c1nc(C(=O)O)nc2nc(-c3cccc(C)c3)n(Cc3ccc(C(F)(F)F)cc3)c12` (centres unmarked) [Example 6.86, 8-(3-methylphenyl)-6-(2-propylpyrrolidin-1-yl)-7-[4-(trifluoromethyl)benzyl]-7H-purine-2-carboxylic acid], for which the IC50 was found to be 754 nM. Still for that read-out and setting: in the case of `CCC(C)CN(C)c1nc(C(=O)O)nc2nc(-c3cccc(C)c3)n(Cc3ccc(C(F)(F)F)cc3)c12` (centres unmarked) [Example 6.89, 6-[methyl(2-methylbutyl)amino]-8-(3-methylphenyl)-7-[4-(trifluoromethyl)benzyl]-7H-purine-2-carboxylic acid] it was 730 nM; in that of `CCCCCN(C)c1nc(C(=O)O)nc2nc(-c3cccc(C)c3)n(Cc3ccc(C(F)(F)F)cc3)c12` [Example 6.91, 6-[methyl(pentyl)amino] -8-(3-methylphenyl)-7-[4-(trifluoromethyl)benzyl]-7H-purine-2-carboxylic acid], 731 nM; in that of `Cc1cccc(-c2nc3nc(C(=O)O)nc(N4CCCC4C4CCC4)c3n2Cc2ccc(C(F)(F)F)cc2)c1` (centres unmarked) [Example 6.92, 6-(2-cyclobutylpyrrolidin-1-yl)-8-(3-methylphenyl)-7-[4-(trifluoromethyl)benzyl]-7H-purine-2-carboxylic acid], 352 nM. Still for that read-out and setting: in the case of `Cc1cccc(-c2nc3nc(C(=O)O)nc(N4CCC4C4CCC4)c3n2Cc2ccc(C(F)(F)F)cc2)c1` (centres unmarked) [Example 6.93, 6-(2-cyclobutylazetidin-1-yl)-8-(3-methylphenyl)-7-[4-(trifluoromethyl)benzyl]-7H-purine-2-carboxylic acid] it was 806 nM; in that of `Cc1cccc(-c2nc3nc(C(=O)O)nc(N4CCCCC4C4CCC4)c3n2Cc2ccc(C(F)(F)F)cc2)c1` (centres unmarked) [Example 6.95, 6-(2-cyclobutylpiperidin-1-yl)-8-(3-methylphenyl)-7-[4-(trifluoromethyl)benzyl]-7H-purine-2-carboxylic acid], 271 nM.

The test is the same for the next values; noted with them: Table 7; read-out: FRET IC50.
On to `Cc1cccc(-c2nc3nc(C(=O)O)nc(N[C@H](CCCO)C4CCC4)c3n2Cc2ccc(Cl)cc2)c1` [Example 7.1, 7-(4-chlorobenzyl)-6-{[(1R)-1-cyclobutyl-4-hydroxybutyl]amino}-8-(3-methylphenyl)-7H-purine-2-carboxylic acid], for which the concentration for half-maximal inhibition (IC50) stood at 105 nM.

`Cc1cccc(-c2nc3nc(C(=O)O)nc(N[C@H](CCCO)C4CCC4)c3n2Cc2ccc(C(F)(F)F)cc2)c1` [Example 7.2, 6-{[(1R)-1-cyclobutyl-4-hydroxybutyl]amino}-8-(3-methylphenyl)-7-[4-(trifluoromethyl)benzyl]-7H-purine-2-carboxylic acid]: the IC50 came to 41 nM. Regarding `Cc1cccc(-c2nc3ncnc(N[C@H](CCCO)C4CCC4)c3n2Cc2ccc(C(F)(F)F)cc2)c1` [Example 7.3, (4R)-4-cyclobutyl-4-({8-(3-methylphenyl)-7-[4-(trifluoromethyl)benzyl]-7H-purin-6-yl}amino)butan-1-ol], the IC50 worked out at 3240 nM. On to `CCC[C@@H](Nc1nc(C(=O)O)nc2nc(-c3cccc(C)c3)n(Cc3ccc(C(F)(F)F)cc3)c12)C1CCC1` [Example 7.5, 6-{[(1R)-1-cyclobutylbutyl]amino}-8-(3-methylphenyl)-7-[4-(trifluoromethyl)benzyl]-7H-purine-2-carboxylic acid], for which the IC50 is 142 nM. With `Cc1cccc(-c2nc3nc(C(=O)O)nc(N[C@H](CCC(=O)NCCO)C4CCC4)c3n2Cc2ccc(C(F)(F)F)cc2)c1` [Example 7.7, 6-({(1R)-1-cyclobutyl-4-[(2-hydroxyethyl)amino]-4-oxobutyl}amino)-8-(3-methylphenyl)-7-[4-(trifluoromethyl)benzyl]-7H-purine-2-carboxylic acid], the IC50 is 832 nM. Turning to `Cc1cccc(-c2nc3nc(C(=O)O)nc(N4CCC[C@@H]4C4CCC4)c3n2Cc2ccc(C(F)(F)F)cc2)c1` [Example 7.8, 6-[(2R)-2-cyclobutylpyrrolidin-1-yl]-8-(3-methylphenyl)-7-[4-(trifluoromethyl)benzyl]-7H-purine-2-carboxylic acid], the IC50 is 188 nM. Consider `Cc1cccc(-c2nc3ncnc(N4CCC[C@@H]4C4CCC4)c3n2Cc2ccc(C(F)(F)F)cc2)c1` [Example 7.9, 6-[(2R)-2-cyclobutylpyrrolidin-1-yl]-8-(3-methylphenyl)-7-[4-(trifluoromethyl)benzyl]-7H-purine], for which the IC50 stood at 4480 nM. As to `Cc1cccc(-c2nc3nc(C(=O)O)nc(N[C@H](CCCN4CCN(C)CC4)C4CCC4)c3n2Cc2ccc(C(F)(F)F)cc2)c1` [Example 7.10, 6-{[(1R)-1-cyclobutyl-4-(4-methylpiperazin-1-yl)butyl]amino}-8-(3-methylphenyl)-7-[4-(trifluoromethyl)benzyl]-7H-purine-2-carboxylic acid], the IC50 came out at 94.3 nM. On the same count and under the same terms, in the case of `Cc1cccc(-c2nc3nc(C(=O)O)nc(N[C@H](CCCN(C)C)C4CCC4)c3n2Cc2ccc(C(F)(F)F)cc2)c1` [Example 7.11, 6-{[(1R)-1-cyclobutyl-4-(dimethylamino)butyl]amino}-8-(3-methylphenyl)-7-[4-(trifluoromethyl)benzyl]-7H-purine-2-carboxylic acid] it was 323 nM; in that of `Cc1cccc(-c2nc3nc(C(=O)O)nc(N[C@H](CCC(N)=O)C4CCC4)c3n2Cc2ccc(C(F)(F)F)cc2)c1` [Example 7.12, 6-{[(1R)-4-amino-1-cyclobutyl-4-oxobutyl]amino}-8-(3-methylphenyl)-7-[4-(trifluoromethyl)benzyl]-7H-purine-2-carboxylic acid], 55.3 nM. With `CNC(=O)CC[C@@H](Nc1nc(C(=O)O)nc2nc(-c3cccc(C)c3)n(Cc3ccc(C(F)(F)F)cc3)c12)C1CCC1` [Example 7.13, 6-{[(1R)-1-cyclobutyl-4-(methylamino)-4-oxobutyl]amino}-8-(3-methylphenyl)-7-[4-(trifluoromethyl)benzyl]-7H-purine-2-carboxylic acid], the IC50 worked out at 102 nM. As for `Cc1cccc(-c2nc3nc(C(=O)O)nc(N[C@H](CC(O)CO)C4CCC4)c3n2Cc2ccc(C(F)(F)F)cc2)c1` (stereo partly drawn) [Example 7.15, 6-{[(1R)-1-cyclobutyl-3,4-dihydroxybutyl]amino}-8-(3-methylphenyl)-7-[4-(trifluoromethyl)benzyl]-7H-purine-2-carboxylic acid], the IC50 worked out at 26.5 nM. Take `CC(C)c1ccnc(-c2nc3nc(C(=O)O)nc(N[C@H](c4ccccc4)C4CCC4)c3n2Cc2ccc(C(F)(F)F)cc2)c1` [Example 7.16, 6-{[(S)-cyclobutyl(phenyl)methyl]amino}-8-[4-(1-methylethyl)pyridin-2-yl]-7-[4-(trifluoromethyl)benzyl]-7H-purine-2-carboxylic acid]: the IC50 was 40.6 nM.

Still in this test, the particulars now being: read-out: inh. at 1000 nM (FRET).
On to `Cc1cccc(-c2nc3nc(C(=O)O)nc(N4CCCC4C4CCCCC4)c3n2Cc2ccc(C(F)(F)F)cc2)c1` (centres unmarked) [Example 6.80, 6-(2-cyclohexylpyrrolidin-1-yl)-8-(3-methylphenyl)-7-[4-(trifluoromethyl)benzyl]-7H-purine-2-carboxylic acid], for which the inhibition at 1 µM came out at 40%. `Cc1cccc(-c2nc3nc(C(=O)O)nc(N(C)C(C)C(C)C)c3n2Cc2ccc(C(F)(F)F)cc2)c1` (centres unmarked) [Example 6.81, 6-[(1,2-dimethylpropyl)(methyl)amino]-8-(3-methylphenyl)-7-[4-(trifluoromethyl)benzyl]-7H-purine-2-carboxylic acid]: the inhibition at 1 µM was 46%. Regarding `Cc1cccc(-c2nc3nc(C(=O)O)nc(N(C)C(C4CC4)C4CC4)c3n2Cc2ccc(C(F)(F)F)cc2)c1` [Example 6.84, 6-[(dicyclopropylmethyl)(methyl)amino]-8-(3-methylphenyl)-7-[4-(trifluoromethyl)benzyl]-7H-purine-2-carboxylic acid], the inhibition at 1 µM amounted to 46%.

Turning to `Cc1cccc(-c2nc3nc(C(=O)O)nc(N4CCCC4C(C)(C)C)c3n2Cc2ccc(C(F)(F)F)cc2)c1` (centres unmarked) [Example 6.87, 6-(2-tert-butylpyrrolidin-1-yl)-8-(3-methylphenyl)-7-[4-(trifluoromethyl)benzyl]-7H-purine-2-carboxylic acid], the inhibition at 1 µM was determined as 43%. Regarding `Cc1cccc(-c2nc3nc(C(=O)O)nc(N(C)C(C)C4CC4)c3n2Cc2ccc(C(F)(F)F)cc2)c1` (centres unmarked) [Example 6.88, 6-[(1-cyclopropylethyl)(methyl)amino]-8-(3-methylphenyl)-7-[4-(trifluoromethyl)benzyl]-7H-purine-2-carboxylic acid], the inhibition at 1 µM was 33%. As for `Cc1cccc(-c2nc3nc(C(=O)O)nc(N(C)CC4CC4(C)C)c3n2Cc2ccc(C(F)(F)F)cc2)c1` (centres unmarked) [Example 6.90, 6-{[(2,2-dimethylcyclopropyl)methyl](methyl)amino}-8-(3-methylphenyl)-7-[4-(trifluoromethyl)benzyl]-7H-purine-2-carboxylic acid], the inhibition at 1 µM amounted to 34%. Same read-out and setting: in the case of `Cc1cccc(Nc2nc(C(=O)O)nc3nc(-c4cccc(C)c4)n(Cc4ccc(C(F)(F)F)cc4)c23)c1` [Example 6.94, 8-(3-methylphenyl)-6-[(3-methylphenyl)amino]-7-[4-(trifluoromethyl)benzyl]-7H-purine-2-carboxylic acid] it was 32%.
